Key:
[1] = system: Hep G2 cells; assay: In vitro toxicity (CellTiter-Glo cell viability), Hep G2; assay type: cell-based; details: cirRNA (SEQ ID NO: 1) LNPs; Hep G2 cells;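 note: percent of untreated cells luminescence signal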
Experimental: (§1) RAW 264.7 and Hep G2 cells were transfected with 1 μg/mL RNA-LNPs. At 72 hours post transfection, cell viability was determined with the CellTiter-Glo® reagent kit, according to the kit protocol, measured by a luminometer.
(§2) The cell viability was calculated according to the following formula: […]

[2] = system: RAW 264.7 cells; assay: In vitro toxicity (CellTiter-Glo cell viability), RAW 264.7; assay type: cell-based; details: cirRNA (SEQ ID NO: 1) LNPs; RAW 264.7 cells;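 note: percent of untreated cells luminescence signal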
Experimental: as §1, §2

[3] = system: BALB/C mice; assay: In vivo expression, whole-body luminescence (IVIS); details: cirRNA (SEQ ID NO: 1) LNPs, BALB/C mice
Experimental: 6-8 week old, female BALB/C mice were injected with 0.05 mg*kg-1 of RNA-LNPs encoding for firefly-luciferase by intravenous injection. At 6 hours post injection, animals were intraperitoneally injected with 15 mg/ml of Luciferin substrate and whole-body luminescence was determined by a bioluminescent in vivo imaging system (IVIS).

[4] = RNA encapsulation efficacy by Quant-IT Ribogreen kit; assay type: physicochemical; details: LNP with cirRNA (SEQ ID NO: 1)
Experimental: (§3) Ionizable lipid, DSPC, Cholesterol and DMG-PEG 2000 were mixed at a molar ratio of 50:10:38.5:1.5 in absolute ethanol. Circular RNA and linear mRNA payloads were suspended in 25 mM Acetate Buffer (pH 4.5). To form LNPs, three volumes of luciferase encoding RNA, in the form of cirRNA (SEQ ID NO:1) and mRNA (SEQ ID NO:2) respectively, were mixed with one volume of lipids in ethanol solution by microfluidic mixing with the Nanoassemblr Ignite (Precision Nanosystems) at a flow rate of 12 ml/min. The molar ratio of ionizable lipid to ribonucleotide was 15 or 6. The final lipid concentration in solution ranged from 1.5 mM to 6 mM. After encapsulation, the particles were dialyzed twice against PBS.
(§4) The LNP size and polydispersity index (PDI), determined by dynamic light scattering (DLS), and zeta potential were measured by a Zetasizer machine (Malvern). RNA concentration and encapsulation efficacy were analyzed by the Quant-IT Ribogreen kit by calculating the percentage encapsulation at 100%−(RNA-LNPs/RNA-LNPs with Triton X-100).

[5] = system: Hep G2 cells; assay: In vitro expression of firefly-luciferase, Hep G2; assay type: cell-based; details: cirRNA (SEQ ID NO: 1) LNPs; firefly-luciferase luminescence; Hep G2 cells
Experimental: (§5) RAW 264.7 and Hep G2 cells were transfected with 100 ng/mL of RNA-LNPs encoding for firefly-luciferase. At 72 hours post transfection, the cells were washed and lysed. The luciferase expression was determined in the cell lysates with the luciferase assay reagent kit (Promega), according to the kit protocol, luciferase activity was measured by a luminometer.

[6] = LNP size and polydispersity index (PDI) by dynamic light scattering; assay type: physicochemical; details: LNP with cirRNA (SEQ ID NO: 1); for Size: in nm (unit assumed)
Experimental: as §3, §4

[7] = LNP zeta potential (Zetasizer); assay type: physicochemical; details: LNP with cirRNA (SEQ ID NO: 1)
Experimental: as §3, §4

[8] = system: RAW 264.7 cells; assay: In vitro expression of firefly-luciferase, RAW 264.7; assay type: cell-based; details: cirRNA (SEQ ID NO: 1) LNPs; firefly-luciferase luminescence; RAW 264.7 cells
Experimental: as §5

In the case of `CCCCCCCCC(CCCCCC)C(=O)OCCCCCCCCN(CCCCCCCCOC(=O)C(CCCCCC)CCCCCCCC)CCCNCCN(C)C` (stereo not drawn) [Lipid 384], the “In vitro Viability HepG2” value [1] is reported as 81%, the “In vitro Viability RAW” value [2] is reported as 88% and the “In vivo Expression (Whole Body)” value [3] is reported as 1.15E+07. For the same molecule, the “Encapsulation Efficiency %” value [4] was 96%, the “In vitro Expression HepG2” value [5] was 2.57E+06 and the PDI [6] was 0.2423. The Size [6] was 135.9, the “Zeta (mV)” value [7] was 8.213 mV and the “In vitro Expression RAW” value [8] was 3.15E+05.

With `CCCCC/C=C\C/C=C\CCCCCCCCN(CCCCCCCC(=O)OC(CCCCCCCC)CCCCCCCC)CCCOC(=O)NCCCN(CC)CC` [Lipid 272] the “In vitro Viability HepG2” value [1] was 97%, the “In vitro Viability RAW” value [2] was 121% and the “In vivo Expression (Whole Body)” value [3] was 6.35E+06. For the same molecule, the “Encapsulation Efficiency %” value [4] was 95%, the “In vitro Expression HepG2” value [5] was 1.01E+07 and the PDI [6] was 0.3463. For the same molecule, the Size [6] was 74.91, the “Zeta (mV)” value [7] was 5.434 mV and the “In vitro Expression RAW” value [8] was 1.34E+06.

With `CCCCCCCCCCC(CCCCCCCC)COC(=O)CCCCCN(CCCCCC(=O)OCC(CCCCCCCC)CCCCCCCCCC)CCCOC(=O)NCCN1CCN(C)CC1` (stereo not drawn) [Lipid 367] the “In vitro Viability HepG2” value [1] was 85%, the “In vitro Viability RAW” value [2] was 90% and the “In vivo Expression (Whole Body)” value [3] was 1.74E+06. For the same molecule, the “Encapsulation Efficiency %” value [4] was 91%, the “In vitro Expression HepG2” value [5] was 5.88E+05 and the PDI [6] was 0.2544. The Size [6] was 131.6, the “Zeta (mV)” value [7] was 0.7313 mV and the “In vitro Expression RAW” value [8] was 2.48E+04.

With `CCCCCCCCC(CCCCCCCC)OC(=O)CCCCCCCN(CCCCCCCCOC(=O)C(CCCCCC)CCCCCCCC)CCCOC(=O)NCCCN(CC)CC` (stereo not drawn) [Lipid 346] the “In vitro Viability HepG2” value [1] was 73%, the “In vitro Viability RAW” value [2] was 93% and the “In vivo Expression (Whole Body)” value [3] was 3.59E+06. The “Encapsulation Efficiency %” value [4] was 95%, the “In vitro Expression HepG2” value [5] was 1.02E+06 and the PDI [6] was 0.264. For the same molecule, the Size [6] was 111.1, the “Zeta (mV)” value [7] was −0.00452 mV and the “In vitro Expression RAW” value [8] was 1.46E+05.

For `CCCCCCCCC(CCCCCC)C(=O)OCCCCCCCCN(CCCCCCCCOC(=O)C(CCCCCC)CCCCCCCC)CCCOC(=O)NCCN1CCN(C)CC1` (stereo not drawn) [Lipid 377], the “In vitro Viability HepG2” value [1] was 71%, the “In vitro Viability RAW” value [2] was 85% and the “In vivo Expression (Whole Body)” value [3] was 8.84E+06. For the same molecule, the “Encapsulation Efficiency %” value [4] was 93%, the “In vitro Expression HepG2” value [5] was 2.55E+06 and the PDI [6] was 0.2338. The Size [6] was 112.8, the “Zeta (mV)” value [7] was 2.594 mV and the “In vitro Expression RAW” value [8] was 1.05E+05.

For `CCCCCCCCCCCOC(=O)CCCCCN(CCCCCCCCOC(=O)C(CCCCCC)CCCCCCCC)CCOC(=O)NCCN(C)C` (stereo not drawn) [Lipid 220], the “In vitro Viability HepG2” value [1] was 89%, the “In vitro Viability RAW” value [2] was 98% and the “In vivo Expression (Whole Body)” value [3] was 1.45E+07. The “Encapsulation Efficiency %” value [4] was 96%, the “In vitro Expression HepG2” value [5] was 3.55E+06 and the PDI [6] was 0.304. For the same molecule, the Size [6] was 112.7, the “Zeta (mV)” value [7] was 10.78 mV and the “In vitro Expression RAW” value [8] was 1.52E+04.

For `CCCCCCCCC(CCCCCCCC)OC(=O)CCCCCCCN(CCCCCCCCOC(=O)C(CCCCCC)CCCCCCCC)CCNC(=O)OCCN(C)C` (stereo not drawn) [Lipid 279], the “In vitro Viability HepG2” value [1] was 23%, the “In vitro Viability RAW” value [2] was 55% and the “In vivo Expression (Whole Body)” value [3] was 3.67E+07. For the same molecule, the “Encapsulation Efficiency %” value [4] was 95%, the “In vitro Expression HepG2” value [5] was 5.05E+06 and the PDI [6] was 0.2722. The Size [6] was 87.32, the “Zeta (mV)” value [7] was −0.06404 mV and the “In vitro Expression RAW” value [8] was 1.62E+05.

In the case of `CCCCC/C=C\CCOC(=O)CCCCCN(CCCCCCCCOC(=O)C(CCCCCC)CCCCCCCC)CCOC(=O)NCCN1CCOCC1` (stereo not drawn) [Lipid 188], the “In vitro Viability HepG2” value [1] is reported as 96%, the “In vitro Viability RAW” value [2] is reported as 87% and the “In vivo Expression (Whole Body)” value [3] is reported as 2.17E+07. For the same molecule, the “Encapsulation Efficiency %” value [4] was 88%, the “In vitro Expression HepG2” value [5] was 1.12E+04 and the PDI [6] was 0.07877. For the same molecule, the Size [6] was 73.74, the “Zeta (mV)” value [7] was −9.419 mV and the “In vitro Expression RAW” value [8] was 2.82E+03.

— US12691070B2, “Cationic lipids and preparation method thereof” (RiboX Therapeutics HK Limited, priority 2023, dated 2026)
